Laboratory results reported in US12545695B2, “Compounds for inhibiting neovascularization factors and use thereof” (UNIST (ULSAN NATIONAL INSTITUTE OF SCIENCE AND TECHNOLOGY), priority 2019, dated 2026).

How the values were obtained:
[1] = target: T1, TRAP1 (Homo sapiens, UniProt Q12931); experiment: Western blot of TRAP1 client proteins (SIRT3, SDHB) in 22Rv1 cell lines; type: cell-based; design: dose or concentration left out as unconfirmed; conditions: 22Rv1 cells, 2 hours, normalized with DMSO (FIG. 24)
T1 construct: endogenous in cells; host or cells: 22Rv1
T1 sequence (Q12931 60-704): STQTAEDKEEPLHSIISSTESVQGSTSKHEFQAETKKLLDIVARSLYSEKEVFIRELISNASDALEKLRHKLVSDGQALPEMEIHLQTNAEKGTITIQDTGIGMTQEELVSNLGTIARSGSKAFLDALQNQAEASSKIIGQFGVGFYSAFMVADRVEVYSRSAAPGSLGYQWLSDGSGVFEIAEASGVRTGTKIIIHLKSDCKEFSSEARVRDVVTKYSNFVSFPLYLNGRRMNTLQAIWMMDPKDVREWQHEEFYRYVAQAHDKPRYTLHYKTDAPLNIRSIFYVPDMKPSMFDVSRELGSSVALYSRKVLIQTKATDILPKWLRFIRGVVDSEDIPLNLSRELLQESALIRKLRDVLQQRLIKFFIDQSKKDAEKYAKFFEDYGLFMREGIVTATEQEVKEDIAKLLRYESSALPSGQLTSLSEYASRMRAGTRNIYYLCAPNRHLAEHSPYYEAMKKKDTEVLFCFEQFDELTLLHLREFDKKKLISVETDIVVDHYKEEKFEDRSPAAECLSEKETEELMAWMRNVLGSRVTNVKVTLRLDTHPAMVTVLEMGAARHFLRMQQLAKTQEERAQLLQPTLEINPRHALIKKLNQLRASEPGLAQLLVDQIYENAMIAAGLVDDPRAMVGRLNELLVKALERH
Description: 22Rv1 cell lines were cultured at 37° C. and 5% CO2, and DMEM-low glucose (Sigma) including 10% fetal bovine serum and 1% penicillin & streptomycin was used as the medium.
22Rv1 cell lines were eeded in the number of 5×10^5 on a 60-millimeter plate, and cultured in 3 ml of medium for 24 hours. The next day, the cells were treated with […] SMx and SM-series (SB-U005, SB-U009, SB-U011, SB-U012), mitochondrial heat shock protein 90 (TRAP1) and cultured for 2 hours. Whole cell lysates were made from the cultured cells, electrophoresed, transferred to a PVDF membrane, and then treated with a primary antibody at 4° C. for 18 hours. The next day, the whole cell lysates were treated with a secondary antibody for 1 hour and protein expression was analyzed using a western blotting detection reagent (FIG. 24).
The cultured cells were treated with the SMx molecule and novel compound molecules SB-U005, SB-U009, SB-U011, and SB-U012 synthesized in Example 6 as drugs, and the treatment results were normalized with DMSO.

[2] = system: oxygen-induced retinopathy mouse model; experiment: Oxygen-induced retinopathy mouse model, eye drop administration, retinal vascular analysis; type: in vivo, C57BL/6J mice; conditions: 1 mM in Liposic, eye drops 3 times a day, P12 to P17; versus control eye (FIG. 18, 19)
Description: An oxygen-induced retinopathy mouse model was induced by rearing young C57BL/6J (Hyochang Science Inc.) mice aged 7 days after birth (P7) in a hyperoxic chamber (Coy Lab. in vivo chamber, 75% O2) for 5 days (P12), and then rearing the mice in a normoxic environment for 5 days (P17).
An oxygen-induced retinopathy mouse model was induced by rearing young C57BL/6J (Hyochang Science Inc.) mice aged 7 days after birth (P7) in a hyperoxic chamber (Coy Lab. in vivo chamber, 75% O2) for 5 days (P12), and then rearing the mice in a normoxic environment for 5 days (P17). SMx was diluted with Liposic (solvent) to 1 mM during P12 to P17 (5 days), which is the period of time when oxygen-induced retinopathy is induced from normal oxygen, and then administered by eye drops 3 times a day. The right eye was administered SMx, and the left eye was administered the control Liposic.
The oxygen-induced retinopathy mouse model was formed, and then perfused with 1×PBS and 4% PFA. After mouse eyes were extracted and fixed in 4% PFA, the retinas were isolated. The isolated retinas were washed with 1×PBS, and then blocked (0.1% BSA, 0.1% Triton X-100 in 1×PBS) at room temperature for 1 hour. The retinas were treated with a CD31 blood-vessel staining antibody (CD31, Cell Signaling, 1:100) overnight at 4° C. […] Blood vessel staining was analyzed under a fluorescence microscope (Zen, Axio Zoom). […]

[3] = system: HIF-1α; experiment: Western blot of HIF-1α in ARPE-19 cells under hypoxia; type: cell-based, Human; conditions: ARPE-19, 1 μM, 1% oxygen, 6 hours (FIG. 26)
Description: Human retinal pigmented epithelium ARPE-19 cells were seeded in the number of 3×10^5 on a 60-millimeter plate, and cultured at 37° C. and 5% CO2, and DMEM/F-12 including 10% fetal bovine serum and 1% penicillin & streptomycin was used as the medium for 2 days. Two days later, the cells were treated with DMSO (0.5%), SMx, SB-U005, SB-U009, SB-U011 and SB-U012 at 1 μM and cultured under 1% oxygen conditions in a hypoxia chamber for 6 hours, and then a western blot experiment was performed.
After the cell culture experiment was completed, the cell culture solution was removed, the cells was washed once with cold PBS, and a RIPA solution (50 mM Tris-HCl pH 7.4, 150 mM NaCl, 0.25% Na-deoxycholate, 1% NP-40) was added thereto to harvest cells using a cell scraper. After the cells were sufficiently lysed, a 6× sample buffer was mixed with a cell suspension obtained by low-temperature centrifugation, the resulting mixture was boiled at 95° C. for 5 minutes, and then 12% SDS-PAGE was performed. […]
Thereafter, the membrane was washed twice with TBS-T (Tris-buffered saline+Tween-20), and then reacted with a secondary antibody (diluted at 1:5,000) at room temperature for 1 hour. After the membrane was washed twice with TBS-T, changes in protein expression level were measured by a Chemidoc system (GE, LAS 4000) using a Clarity Western ECL substrate (Bio-Rad).

Compound: COC1=C(OC)C(=O)C(CCCCCCCCCC[P+](c2ccccc2)(c2ccccc2)c2ccccc2)=C(C)C1=O [SMx]
- concentrations of the client proteins (SIRT3, SDHB) [1]: significantly decreased
- avascular area [2]: significantly reduced
- neovascular area [2]: significantly reduced
- suppression of HIF-1α [3]: effectively suppressed
